Assay results reported in patent US7553853B2, “Solid-state montelukast” (Synthon BV, priority 2003, dated 2009).

Tests used:
[1] = Hygroscopicity of montelukast acid (water content by Karl Fisher apparatus after exposure); assay type: physicochemical
Protocol: Montelukast acid (50 mg) from Example 2 was exposed to air overnight. The water content was then determined to be 0.07 wt % using a Karl Fisher apparatus.
Montelukast acid (50 mg) from Example 2 was stored for 2 days at 40° C., 75% relative humidity. The water content was then determined to be 0.27 wt % using a Karl Fisher apparatus.

[2] = Hygroscopicity as stated in the description; assay type: physicochemical; details: solid state

water content ([1]; montelukast acid (50 mg) from Example 2, exposed to air overnight): 0.07 wt %
water content ([1]; montelukast acid (50 mg) from Example 2, stored for 2 days at 40° C., 75% relative humidity): 0.27 wt %
hygroscopicity in comparison to sodium montelukast [2]: reduced hygroscopicity
SMILES: CC(C)(O)c1ccccc1CC[C@@H](SCC1(CC(=O)O)CC1)c1cccc(/C=C/c2ccc3ccc(Cl)cc3n2)c1 [Montelukast acid, [R-(E)]-1-[[[1-[3-[2-(7-chloro-2-quinolinyl)ethenyl]phenyl]-3-[2-(1-hydroxy-1-methylethyl)phenyl]propyl]thio]methyl]cyclopropane acetic acid]
